In PubChem BioAssay AID2060599 (Molecular Pharmacology Branch, DTP, NCI, 2025):

Each molecule was assayed on 817829-284-R-J1-PDC complex spheroids, viability (assay: Anticancer human tumor 817829-284-R-J1-PDC patient-derived colon adenocarcinoma cell line growth inhibition [CLK]). Settings: second compound 1 µM; first compound 0.1 µM; hits give low values.
Method in brief: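 Multi-cell-type spheroids combined patient-derived tumor cells with HUVEC endothelial cells and human mesenchymal stem cells. Paired agents were dosed in half-log steps down from about clinical Cmax, or from 10 microM where Cmax was unknown.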
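Note: spheroids exposed to the agents for seven days before readout.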

| Structure (SMILES) | viability, T/C [%] |
| --- | --- |
| CC(Nc1ccc2c(c1)OCCn1cc(N3C(=O)OCC3C(F)F)nc1-2)C(N)=O (stereo unspecified) + CN1CCN(c2cc(C(=O)Nc3cc4cc(-c5cnn(C)c5)ccc4cn3)ccn2)CC1 | 0.11 |
| CCN1CCN(Cc2ccc(Nc3ncc(F)c(-c4cc(F)c5nc(C)n(C(C)C)c5c4)n3)nc2)CC1 + CN1CCN(c2cc(C(=O)Nc3cc4cc(-c5cnn(C)c5)ccc4cn3)ccn2)CC1 | 0.08 |
| COc1c(OCCCN2CCOCC2)ccc2c3n(c(=NC(=O)c4cnc(N)nc4)nc12)CCN3 + CN1CCN(c2cc(C(=O)Nc3cc4cc(-c5cnn(C)c5)ccc4cn3)ccn2)CC1 | 0.12 |

Same assay, conditions: second compound 1 µM; first compound 0.316 µM; hits give low values

| Structure (SMILES) | viability, T/C [%] |
| --- | --- |
| C#Cc1c(F)ccc2cc(O)cc(-c3ncc4c(N5CC6CCC(C5)N6)nc(OCC56CCCN5CC(F)C6)nc4c3F)c12 (stereo unspecified) + CN1CCN(c2cc(C(=O)Nc3cc4cc(-c5cnn(C)c5)ccc4cn3)ccn2)CC1 | 0.17 |
| CC(CO)NC(=O)c1cc(-c2ccc(Cl)cc2)nn(-c2cnn(C)c2)c1=O (stereo unspecified) + CN1CCN(c2cc(C(=O)Nc3cc4cc(-c5cnn(C)c5)ccc4cn3)ccn2)CC1 | 0.15 |
| CC(Nc1ccc2c(c1)OCCn1cc(N3C(=O)OCC3C(F)F)nc1-2)C(N)=O (stereo unspecified) + CN1CCN(c2cc(C(=O)Nc3cc4cc(-c5cnn(C)c5)ccc4cn3)ccn2)CC1 | 0.12 |
| CCN1CCN(Cc2ccc(Nc3ncc(F)c(-c4cc(F)c5nc(C)n(C(C)C)c5c4)n3)nc2)CC1 + CN1CCN(c2cc(C(=O)Nc3cc4cc(-c5cnn(C)c5)ccc4cn3)ccn2)CC1 | 0.1 |
| COc1c(OCCCN2CCOCC2)ccc2c3n(c(=NC(=O)c4cnc(N)nc4)nc12)CCN3 + CN1CCN(c2cc(C(=O)Nc3cc4cc(-c5cnn(C)c5)ccc4cn3)ccn2)CC1 | 0.11 |

Same assay, conditions: second compound 1 µM; first compound 1 µM; hits give low values

| Structure (SMILES) | viability, T/C [%] |
| --- | --- |
| C#Cc1c(F)ccc2cc(O)cc(-c3ncc4c(N5CC6CCC(C5)N6)nc(OCC56CCCN5CC(F)C6)nc4c3F)c12 (stereo unspecified) + CN1CCN(c2cc(C(=O)Nc3cc4cc(-c5cnn(C)c5)ccc4cn3)ccn2)CC1 | 0.12 |
| CC(CO)NC(=O)c1cc(-c2ccc(Cl)cc2)nn(-c2cnn(C)c2)c1=O (stereo unspecified) + CN1CCN(c2cc(C(=O)Nc3cc4cc(-c5cnn(C)c5)ccc4cn3)ccn2)CC1 | 0.11 |
| CC(Nc1ccc2c(c1)OCCn1cc(N3C(=O)OCC3C(F)F)nc1-2)C(N)=O (stereo unspecified) + CN1CCN(c2cc(C(=O)Nc3cc4cc(-c5cnn(C)c5)ccc4cn3)ccn2)CC1 | 0.07 |
| CCN1CCN(Cc2ccc(Nc3ncc(F)c(-c4cc(F)c5nc(C)n(C(C)C)c5c4)n3)nc2)CC1 + CN1CCN(c2cc(C(=O)Nc3cc4cc(-c5cnn(C)c5)ccc4cn3)ccn2)CC1 | 0.19 |
| COc1c(OCCCN2CCOCC2)ccc2c3n(c(=NC(=O)c4cnc(N)nc4)nc12)CCN3 + CN1CCN(c2cc(C(=O)Nc3cc4cc(-c5cnn(C)c5)ccc4cn3)ccn2)CC1 | 0.34 |

Same assay, conditions: second compound 1 µM; first compound 3.16 µM; hits give low values

| Structure (SMILES) | viability, T/C [%] |
| --- | --- |
| C#Cc1c(F)ccc2cc(O)cc(-c3ncc4c(N5CC6CCC(C5)N6)nc(OCC56CCCN5CC(F)C6)nc4c3F)c12 (stereo unspecified) + CN1CCN(c2cc(C(=O)Nc3cc4cc(-c5cnn(C)c5)ccc4cn3)ccn2)CC1 | 0.09 |
| CC(CO)NC(=O)c1cc(-c2ccc(Cl)cc2)nn(-c2cnn(C)c2)c1=O (stereo unspecified) + CN1CCN(c2cc(C(=O)Nc3cc4cc(-c5cnn(C)c5)ccc4cn3)ccn2)CC1 | 0.11 |
| CC(Nc1ccc2c(c1)OCCn1cc(N3C(=O)OCC3C(F)F)nc1-2)C(N)=O (stereo unspecified) + CN1CCN(c2cc(C(=O)Nc3cc4cc(-c5cnn(C)c5)ccc4cn3)ccn2)CC1 | 0.09 |

Same assay, conditions: second compound 1 µM; first compound 10 µM; hits give low values

| Structure (SMILES) | viability, T/C [%] |
| --- | --- |
| C#Cc1c(F)ccc2cc(O)cc(-c3ncc4c(N5CC6CCC(C5)N6)nc(OCC56CCCN5CC(F)C6)nc4c3F)c12 (stereo unspecified) + CN1CCN(c2cc(C(=O)Nc3cc4cc(-c5cnn(C)c5)ccc4cn3)ccn2)CC1 | 0.09 |
| CC(CO)NC(=O)c1cc(-c2ccc(Cl)cc2)nn(-c2cnn(C)c2)c1=O (stereo unspecified) + CN1CCN(c2cc(C(=O)Nc3cc4cc(-c5cnn(C)c5)ccc4cn3)ccn2)CC1 | 0.13 |
| CC(Nc1ccc2c(c1)OCCn1cc(N3C(=O)OCC3C(F)F)nc1-2)C(N)=O (stereo unspecified) + CN1CCN(c2cc(C(=O)Nc3cc4cc(-c5cnn(C)c5)ccc4cn3)ccn2)CC1 | 0.11 |

Same assay, conditions: second compound 3.16 µM; first compound 0.00316 µM; hits give low values

| Structure (SMILES) | viability, T/C [%] |
| --- | --- |
| CCN1CCN(Cc2ccc(Nc3ncc(F)c(-c4cc(F)c5nc(C)n(C(C)C)c5c4)n3)nc2)CC1 + CN1CCN(c2cc(C(=O)Nc3cc4cc(-c5cnn(C)c5)ccc4cn3)ccn2)CC1 | 0.13 |
| COc1c(OCCCN2CCOCC2)ccc2c3n(c(=NC(=O)c4cnc(N)nc4)nc12)CCN3 + CN1CCN(c2cc(C(=O)Nc3cc4cc(-c5cnn(C)c5)ccc4cn3)ccn2)CC1 | 0.17 |

Same assay, conditions: second compound 3.16 µM; first compound 0.01 µM; hits give low values

| Structure (SMILES) | viability, T/C [%] |
| --- | --- |
| CCN1CCN(Cc2ccc(Nc3ncc(F)c(-c4cc(F)c5nc(C)n(C(C)C)c5c4)n3)nc2)CC1 + CN1CCN(c2cc(C(=O)Nc3cc4cc(-c5cnn(C)c5)ccc4cn3)ccn2)CC1 | 0.14 |
| COc1c(OCCCN2CCOCC2)ccc2c3n(c(=NC(=O)c4cnc(N)nc4)nc12)CCN3 + CN1CCN(c2cc(C(=O)Nc3cc4cc(-c5cnn(C)c5)ccc4cn3)ccn2)CC1 | 0.13 |

Same assay, conditions: second compound 3.16 µM; first compound 0.0316 µM; hits give low values

| Structure (SMILES) | viability, T/C [%] |
| --- | --- |
| C#Cc1c(F)ccc2cc(O)cc(-c3ncc4c(N5CC6CCC(C5)N6)nc(OCC56CCCN5CC(F)C6)nc4c3F)c12 (stereo unspecified) + CN1CCN(c2cc(C(=O)Nc3cc4cc(-c5cnn(C)c5)ccc4cn3)ccn2)CC1 | 0.15 |
| CC(CO)NC(=O)c1cc(-c2ccc(Cl)cc2)nn(-c2cnn(C)c2)c1=O (stereo unspecified) + CN1CCN(c2cc(C(=O)Nc3cc4cc(-c5cnn(C)c5)ccc4cn3)ccn2)CC1 | 0.18 |
| CC(Nc1ccc2c(c1)OCCn1cc(N3C(=O)OCC3C(F)F)nc1-2)C(N)=O (stereo unspecified) + CN1CCN(c2cc(C(=O)Nc3cc4cc(-c5cnn(C)c5)ccc4cn3)ccn2)CC1 | 0.12 |
